Measured values from ChEMBL document CHEMBL3232992, “Synthesis and the hepatoprotective activity of dibenzocyclooctadiene lignan derivatives” (2014).

System: L02
Assay: Hepatoprotective activity against carbon tetrachloride-induced toxicity in human HL-7702 cells assessed as increase of cell survival rate at 0.2 ug/ul pretreated for 12 hrs before carbon tetrachloride addition by MTS assay relative to control
Type: functional

Point of comparison: `COc1cc2c(c(OC)c1OC)-c1c(O)c(OC)c(OC)c(Cl)c1C[C@H](C)[C@H](C)C2`, Survival 63%. Against it:
- COc1c(Cl)c2c(c(OC)c1OC)-c1c(c(Cl)c(OC)c(OC)c1OC)C[C@](C)(O)[C@@H](C)C2 — lower, 44%
- COc1cc2c(c(OC)c1OC)-c1c(c(Cl)c(OC)c(OC)c1OC)C[C@](C)(O)[C@@H](C)C2 — lower, 44%
- COc1c(Br)c2c(c(OC)c1OC)-c1c(c(Br)c(OC)c(OC)c1OC)C[C@](C)(O)[C@@H](C)C2 — lower, 54.2%
- COc1cc2c(c(OC)c1OC)-c1c(c(Br)c(OC)c(OC)c1OC)C[C@](C)(O)[C@@H](C)C2 — lower, 50%
- COc1c(I)c2c(c(OC)c1OC)-c1c(c(I)c(OC)c(OC)c1OC)C[C@](C)(O)[C@@H](C)C2 — lower, 45%
- COc1cc2c(c(OC)c1OC)-c1c(c(I)c(OC)c(OC)c1OC)C[C@](C)(O)[C@@H](C)C2 — lower, 40.9%
- COC1=C(OC)C23C(=CC1=O)CC(C)C2(C)Cc1cc(OC)c(OC)c(OC)c13 (stereo unspecified) — lower, 34.6%
- COc1c(Br)c2c(c(OC)c1OC)-c1c(c(OC)c(OC)c(OC)c1OC)C[C@](C)(O)[C@@H](C)C2 — higher, 73.6%
- COc1c(Cl)c2c(c(OC)c1OC)-c1c(c(Cl)c3c(c1OC)OCO3)C[C@H](C)[C@H](C)C2 — lower, 51.8%
- COc1c(Cl)c2c(c(OC)c1OC)-c1c(cc3c(c1OC)OCO3)C[C@H](C)[C@H](C)C2 — lower, 43.4%
- COc1c(Br)c2c(c(OC)c1OC)-c1c(c(Br)c3c(c1OC)OCO3)C[C@H](C)[C@H](C)C2 — higher, 63.4%
- COc1c(Br)c2c(c(OC)c1OC)-c1c(cc3c(c1OC)OCO3)C[C@H](C)[C@H](C)C2 — lower, 49.1%
- COc1c(I)c2c(c(OC)c1OC)-c1c(c(I)c3c(c1OC)OCO3)C[C@H](C)[C@H](C)C2 — higher, 90%
- COc1c(OC)c(C(C)=O)c2c(c1OC)-c1c(cc3c(c1OC)OCO3)C[C@H](C)[C@H](C)C2 — lower, 44.4%
- COc1cc2c(c(OC)c1OC)-c1c(cc(OC)c(OC)c1OC(C)=O)C[C@H](C)[C@H](C)C2 — higher, 65%
- COc1c(O)c2c(c(Cl)c1OC)C[C@H](C)[C@H](C)Cc1c(Cl)c(OC)c(OC)c(OC)c1-2 — higher, 98.5%
- COc1c(O)c2c(c(Br)c1OC)C[C@H](C)[C@H](C)Cc1c(Br)c(OC)c(OC)c(OC)c1-2 — higher, 83%
- COc1cc2c(c(OC)c1OC)-c1c(O)c(OC)c(OC)c(Br)c1C[C@H](C)[C@H](C)C2 — higher, 82%
- COc1c(O)c2c(c(I)c1OC)C[C@H](C)[C@H](C)Cc1c(I)c(OC)c(OC)c(OC)c1-2 — lower, 50%
- COC1=C(OC)C(OC(C)=O)C2=C(C[C@H](C)[C@H](C)Cc3cc(OC)c(OC)c(OC)c32)C1=O (stereo partly specified) — lower, 52.7%
- COC1=C(OC)C(=O)C2=C(C[C@H](C)[C@H](C)Cc3cc(OC)c(OC)c(OC)c32)C1=O — higher, 85.5%
- COC(=O)c1cc(OC)c2c(c1-c1c(C(=O)OC)cc(OC)c3c1OCO3)OCO2 [BIFENDATE] — lower, 40.3%
- COc1cc2c(c(O)c1OC)-c1c(cc(OC)c(OC)c1OC)C[C@@H](C)[C@@H](C)C2 [SCHISANHENOL] — lower, 48.1%
- COc1cc2c(c(OC)c1OC)-c1c(cc(OC)c(OC)c1OC)C[C@](C)(O)[C@@H](C)C2 [SCHIZANDRIN] — lower, 43.3%
- COc1cc2c(c(OC)c1OC)-c1c(cc3c(c1OC)OCO3)C[C@H](C)[C@H](C)C2 [WUWEIZISU B] — lower, 42.8%
